# Results published in the RepoRT retention time repository (doi:10.1016/j.jchromb.2020.122105).
# Key:
# Details in all cases: stereoisomer not certain
# [1] = RP, Waters CORTECS T3, 100 × 2.1 mm, 2.7 µm, 0.3 mL/min, estimated dead time 0.73 min; A: water + 0.1% formic acid, pH 3; B: methanol + 0.1% formic acid, pH 3; gradient (min/%B) 0/0 5/0 25/100 30/100 30.1/0 35/0
# [2] = RP, Waters CORTECS T3, 100 × 2.1 mm, 2.7 µm, 0.2 mL/min, estimated dead time 1.1 min; A: water + 0.1% formic acid, pH 3; B: methanol + 0.1% formic acid, pH 3; gradient (min/%B) 0/0 1/0 6/5 30/100 35/100 35.1/0 40/0
# [3] = RP, Waters CORTECS T3, 100 × 2.1 mm, 2.7 µm, 0.3 mL/min, estimated dead time 0.73 min; A: water + 0.1% formic acid, pH 3; B: methanol + 0.1% formic acid, pH 3; gradient (min/%B) 0/0 1/0 6/5 30/100 35/100 35.1/0 40/0
# [4] = RP, Waters CORTECS T3, 100 × 2.1 mm, 2.7 µm, 0.2 mL/min, estimated dead time 1.1 min; A: water + 0.1% formic acid, pH 3; B: methanol + 0.1% formic acid, pH 3; gradient (min/%B) 0/5 5/5 25/95 25.1/100 35/100 35.1/5 45/5
# [5] = RP, Thermo Scientific Hypercarb, 150 × 2.1 mm, 5 µm, 0.1 mL/min, estimated dead time 3.3 min; A: water + 0.1% formic acid, pH 3; B: methanol + 0.1% formic acid, pH 3; gradient (min/%B) 0/5 5/5 20/100 35/100 35.1/5 45/5
# [6] = RP, Waters CORTECS T3, 100 × 2.1 mm, 2.7 µm, 0.15 mL/min, estimated dead time 1.5 min; A: water + 0.1% formic acid, pH 3; B: methanol + 0.1% formic acid, pH 3; gradient (min/%B) 0/5 5/5 25/95 25.1/100 35/100 35.1/5 45/5
# [7] = RP, Waters ACQUITY UPLC BEH C18, 100 × 2.1 mm, 1.7 µm, 0.2 mL/min, estimated dead time 1.1 min; A: water + 0.1% formic acid, pH 3; B: methanol + 0.1% formic acid, pH 3; gradient (min/%B) 0/5 5/5 25/100 30/100 30.1/5 35/5
# [8] = RP, Waters CORTECS T3, 100 × 2.1 mm, 2.7 µm, 0.25 mL/min, estimated dead time 0.88 min; A: water + 0.1% formic acid, pH 3; B: methanol + 0.1% formic acid, pH 3; gradient (min/%B) 0/5 5/5 25/95 25.1/100 35/100 35.1/5 45/5
# [9] = RP, Waters CORTECS T3, 100 × 2.1 mm, 2.7 µm, 0.2 mL/min, estimated dead time 1.1 min; A: water + 0.045% formic acid + 0.11% ammonium hydroxide, pH 7; B: methanol; gradient (min/%B) 0/5 5/5 25/95 25.1/100 35/100 35.1/5 45/5
# [10] = RP, Waters ACQUITY UPLC BEH C18, 100 × 2.1 mm, 1.7 µm, 0.1 mL/min, estimated dead time 2.2 min; A: water + 0.1% formic acid, pH 3; B: methanol + 0.1% formic acid, pH 3; gradient (min/%B) 0/5 5/5 25/95 25.1/100 35/100 35.1/5 45/5
# [11] = as above; remark: listed apart in the source
# [12] = as above; remark: listed apart in the source
# [13] = RP, Waters ACQUITY UPLC BEH C18, 100 × 2.1 mm, 1.7 µm, 0.2 mL/min, estimated dead time 1.1 min; A: water + 0.025% formic acid + 20 mM ammonium acetate + 0.055% ammonium hydroxide, pH 7; B: methanol; gradient (min/%B) 0/5 5/5 25/100 30/100 30.1/5 35/5
# [14] = as above; remark: listed apart in the source
# [15] = HILIC, Merck SeQuant ZIC-HILIC, 150 × 2.1 mm, 5 µm, 0.75 mL/min, estimated dead time 0.44 min; A: water + 10 mM ammonium formate, pH 6; B: 5% water + 95% acetonitrile + 10 mM ammonium formate, pH 6; gradient (min/%B) 0/95 5/95 20/57 25/57 30/95 40/95
# [16] = HILIC, Merck SeQuant ZIC-HILIC, 150 × 2.1 mm, 5 µm, 0.75 mL/min, estimated dead time 0.44 min; A: water + 0.1% acetic acid + 10 mM ammonium acetate, pH 4; B: 5% water + 95% acetonitrile + 0.1% acetic acid + 10 mM ammonium acetate, pH 4; gradient (min/%B) 0/95 5/95 20/57 25/57 30/95 40/95
# [17] = HILIC, Waters XBridge BEH Amide, 100 × 2.1 mm, 2.5 µm, 0.5 mL/min, estimated dead time 0.44 min; A: water + 0.1% acetic acid + 10 mM ammonium acetate, pH 4; B: 5% water + 95% acetonitrile + 0.1% acetic acid + 10 mM ammonium acetate, pH 4; gradient (min/%B) 0/95 5/95 20/57 25/57 30/95 40/95
# [18] = HILIC, Thermo Scientific Accucore HILIC, 100 × 2.1 mm, 2.6 µm, 0.5 mL/min, estimated dead time 0.44 min; A: water + 0.1% formic acid + 10 mM ammonium formate, pH 3; B: 5% water + 95% acetonitrile + 0.1% formic acid + 10 mM ammonium formate, pH 3; gradient (min/%B) 0/95 5/95 20/57 25/57 30/95 40/95
smiles,measurement,setting,value
c1ncc2[nH]cnc2n1 [PURINE],LC retention time,[1],2.61 min
same,LC retention time,[2],3.64 min
same,LC retention time,[3],2.6 min
same,LC retention time,[4],6.98 min
same,LC retention time,[5],35.3 min
same,LC retention time,[6],3.26 min
same,LC retention time,[7],2.36 min
same,LC retention time,[8],1.99 min
same,LC retention time,[9],3.15 min
same,LC retention time,[10],4.62 min
same,LC retention time,[11],4.65 min
same,LC retention time,[12],2.69 min
same,LC retention time,[13],1.74 min
same,LC retention time,[14],3.15 min
same,LC retention time,[15],1.31 min
same,LC retention time,[16],1.25 min
same,LC retention time,[17],1.59 min
same,LC retention time,[18],1.41 min
